# According to patent US20240041877A1, “DOSAGE REGIME AND METHOD FOR TREATING PULMONARY ARTERIAL HYPERTENSION” (Altavant Sciences GmbH, priority 2019, published 2024):
# Assay: Study KAR5585-101 Part 1 (SAD): plasma pharmacokinetics after a single oral dose of KAR5585, fasting and fed (incl. dose proportionality and food effect)
# Details: for half-life / AUC / AUC(0-inf) / Cmax / Vd/F / Tmax: human, po; for AUC: AUC0-tau; for Vd/F: Vz/F; for Tmax: Median
# [1] = 100 mg KAR5585 single oral, fasted, Cohort 1, Geo. Mean
# [2] = 100 mg KAR5585 single oral, fasted, Cohort 1, Mean
# [3] = 200 mg KAR5585 single oral, fasted, Cohort 2, Geo. Mean
# [4] = 200 mg KAR5585 single oral, fasted, Cohort 2, Mean
# [5] = 400 mg KAR5585 single oral, fasted, Cohort 3A, Geo. Mean
# [6] = 400 mg KAR5585 single oral, fasted, Cohort 3A, Mean
# [7] = 400 mg KAR5585 single oral, fed, Cohort 3B, Geo. Mean
# [8] = 400 mg KAR5585 single oral, fed, Cohort 3B, Mean
# [9] = 700 mg KAR5585 single oral, fasted, Cohort 4, Geo. Mean
# [10] = 700 mg KAR5585 single oral, fasted, Cohort 4, Mean
# [11] = 1200 mg KAR5585 single oral, fasted, Cohort 5, Geo. Mean
# [12] = 1200 mg KAR5585 single oral, fasted, Cohort 5, Mean
# [13] = 2000 mg KAR5585 single oral, fasted, Cohort 6, Geo. Mean
# [14] = 2000 mg KAR5585 single oral, fasted, Cohort 6, Mean
# [15] = 100 to 2000 mg KAR5585 single oral dose, fasting, plasma analyte = label
# [16] = plasma, 100 mg, 100 mg KAR5585 single oral, fasted, Cohort 1, Geo. Mean
# [17] = plasma, 100 mg, 100 mg KAR5585 single oral, fasted, Cohort 1, Mean
# [18] = plasma, 200 mg, 200 mg KAR5585 single oral, fasted, Cohort 2, Geo. Mean
# [19] = plasma, 200 mg, 200 mg KAR5585 single oral, fasted, Cohort 2, Mean
# Description: Food effect was to be evaluated in Part 1, Period 2. Part 2 was permitted to begin before Part 1 was completed and, in each part, the data from each dose Cohort were to be reviewed for safety before the next dose Cohort was enrolled.
# Part 1 had 6 Cohorts of 12 subjects each (for a total of 72 subjects) and Part 2 had 4 Cohorts of 12 subjects each (for a total of 48 subjects). In Part 1, the 12 subjects in Cohort 3 (400 mg)were studied twice, once under fasting conditions (Period 1) and once under fed conditions (Period 2) for food-effect assessment.
# Pharmacokinetic data were to be summarized descriptively.
smiles,measurement,setting,value
"CCOC(=O)[C@@H]1CC2(CCN(c3cc(O[C@H](c4ccc(Cl)cc4-c4ccccc4)C(F)(F)F)nc(N)n3)CC2)CN1 [KAR5585, (S)-ethyl 8-(2-amino-6-((R)-1-(5-chloro-[1,1′-biphenyl]-2-yl)-2,2,2-trifluoroethoxy)pyrimidin-4-yl)-2,8-diazaspiro[4.5]decane-3-carboxylate]",AUC0-24/D,[1],0.475 (hr*ng/ml)/mg
same,C12,[1],BLQ
same,CL/F,[1],2110 L/h
same,Cmax/D,[1],0.132 (ng/mL)/mg
same,AUC0-24/D,[2],0.496 (hr*ng/ml)/mg
same,C12,[2],BLQ
same,CL/F,[2],2210 L/h
same,Cmax/D,[2],0.139 (ng/mL)/mg
same,AUC0-24/D,[3],0.467 (hr*ng/ml)/mg
same,C12,[3],BLQ
same,CL/F,[3],2100 L/h
same,Cmax/D,[3],0.0875 (ng/mL)/mg
same,AUC0-24/D,[4],0.485 (hr*ng/ml)/mg
same,C12,[4],BLQ
same,CL/F,[4],2220 L/h
same,Cmax/D,[4],0.0961 (ng/mL)/mg
same,AUC0-24/D,[5],0.707 (hr*ng/ml)/mg
same,CL/F,[5],1390 L/h
same,Cmax/D,[5],0.105 (ng/mL)/mg
same,AUC0-24/D,[6],0.742 (hr*ng/ml)/mg
same,CL/F,[6],1480 L/h
same,Cmax/D,[6],0.132 (ng/mL)/mg
same,AUC0-24/D,[7],2.19 (hr*ng/ml)/mg
same,CL/F,[7],443 L/h
same,Cmax/D,[7],0.413 (ng/mL)/mg
same,AUC0-24/D,[8],2.21 (hr*ng/ml)/mg
same,CL/F,[8],449 L/h
same,Cmax/D,[8],0.422 (ng/mL)/mg
same,AUC0-24/D,[9],0.584 (hr*ng/ml)/mg
same,CL/F,[9],1700 L/h
same,Cmax/D,[9],0.136 (ng/mL)/mg
same,AUC0-24/D,[10],0.617 (hr*ng/ml)/mg
same,CL/F,[10],1810 L/h
same,Cmax/D,[10],0.142 (ng/mL)/mg
same,AUC0-24/D,[11],0.333 (hr*ng/ml)/mg
same,CL/F,[11],2960 L/h
same,Cmax/D,[11],0.0568 (ng/mL)/mg
same,AUC0-24/D,[12],0.378 (hr*ng/ml)/mg
same,CL/F,[12],3850 L/h
same,Cmax/D,[12],0.0692 (ng/mL)/mg
same,AUC0-24/D,[13],0.348 (hr*ng/ml)/mg
same,CL/F,[13],3000 L/h
same,Cmax/D,[13],0.0475 (ng/mL)/mg
same,AUC0-24/D,[14],0.403 (hr*ng/ml)/mg
same,CL/F,[14],3820 L/h
same,Cmax/D,[14],0.0522 (ng/mL)/mg
same,"Dose proportionality power model, AUC0-12: Intercept estimate",[15],1.51
same,"Dose proportionality power model, AUC0-inf: Intercept estimate",[15],1.46
same,"Dose proportionality power model, AUC0-tau: Intercept estimate",[15],0.258
same,"Dose proportionality power model, Cmax: Intercept estimate",[15],0.534
same,half-life,"in vivo, 200 mg",3.17 h
same,AUC,[16],27.4 ng·h/mL
same,AUC,[17],35 ng·h/mL
same,AUC(0-inf),"plasma, 100 mg, AUC0-∞, 100 mg KAR5585 single oral, fasted, Cohort 1, Geo. Mean",47.5 ng·h/mL
same,AUC(0-inf),"plasma, 100 mg, AUC0-∞, 100 mg KAR5585 single oral, fasted, Cohort 1, Mean",49.5 ng·h/mL
same,Cmax,[16],13.2 ng/mL
same,Cmax,[17],13.9 ng/mL
same,Vd/F,[16],5190 L
same,Vd/F,[17],5680 L
same,half-life,"plasma, 100 mg, t1 (t½, apparent terminal half-life), 100 mg KAR5585 single oral, fasted, Cohort 1, Geo. Mean",1.71 h
same,half-life,"plasma, 100 mg, t1 (t½, apparent terminal half-life), 100 mg KAR5585 single oral, fasted, Cohort 1, Mean",1.89 h
same,Tmax,"plasma, 100 mg, 100 mg KAR5585 single oral, fasted, Cohort 1",1.5 h
same,AUC,[18],52 ng·h/mL
same,AUC,[19],61.4 ng·h/mL
same,AUC(0-inf),"plasma, 200 mg, AUC0-∞, 200 mg KAR5585 single oral, fasted, Cohort 2, Geo. Mean",95.3 ng·h/mL
same,AUC(0-inf),"plasma, 200 mg, AUC0-∞, 200 mg KAR5585 single oral, fasted, Cohort 2, Mean",99.5 ng·h/mL
same,Cmax,[18],17.5 ng/mL
same,Cmax,[19],19.2 ng/mL
same,Vd/F,[18],9610 L
same,Vd/F,[19],10300 L
same,half-life,"plasma, 200 mg, t1 (t½, apparent terminal half-life), 200 mg KAR5585 single oral, fasted, Cohort 2, Mean",3.63 h
same,Tmax,"plasma, 200 mg, 200 mg KAR5585 single oral, fasted, Cohort 2",1.78 h
same,AUC(0-inf),"plasma, 400 mg, AUC0-inf, Geometric Mean, Cohort 3A (Fasting), 400 mg KAR5585 single oral dose, fasting",288 ng·h/mL
same,AUC(0-inf),"plasma, 400 mg, AUC0-inf, Geometric Mean, Cohort 3B (Fed), 400 mg KAR5585 single oral dose, fed",903 ng·h/mL
same,AUC,"plasma, 400 mg, 400 mg KAR5585 single oral, fasted, Cohort 3A, Geo. Mean",176 ng·h/mL
